Measured values published in PubChem BioAssay AID180 (DTP/NCI, 2004).
Values joined by “and” are separate entries in the source; they are usually repeats but may differ in a detail not shown here. Identical values can stand only once.

Test system: BDF1 mice, Adenocarcinoma 755 s.c., tumor weight T/C
Assay: NCI In Vivo Anticancer Drug Screen. Data for tumor model Adenocarcinoma 755 (subcutaneous) in B6D2F1 (BDF1) mice
Settings: endpoint: mean tumor weight, higher = larger tumour
Outline: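 Tumor-bearing mice receive test compound while controls get vehicle alone. Antitumor effect is scored from survival or tumor dimensions as a T/C quotient.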

[1] = dose: 8.0 mg/kg/injection, schedule: Q01DX011 (ip), vehicle: carboxymethylcellulose (CMC)
[2] = dose: 12.0 mg/kg/injection, schedule: Q01DX011 (ip), vehicle: carboxymethylcellulose (CMC)
[3] = dose: 5.0 mg/kg/injection, schedule: Q01DX011 (ip), vehicle: saline
[4] = dose: 10.0 mg/kg/injection, schedule: Q01DX011 (ip), vehicle: saline
[5] = dose: 20.0 mg/kg/injection, schedule: Q01DX011 (ip), vehicle: saline

Compound: C=C(Br)CN(CC)CCO
- T/C (dose: 50.0 mg/kg/injection, schedule: Q01DX011 (ip), vehicle: other): 66 % of control

Compound: O=CCC(O)C(O)C(O)CO (configuration not stated)
- T/C (dose: 125.0 mg/kg/injection, schedule: Q01DX011 (ip), vehicle: carboxymethylcellulose (CMC)): 106 % of control and 122 % of control

Compound: Clc1ccc(N2CCN(CCCN3CCN(c4cccc(Cl)c4)CC3)CC2)cc1
- T/C (dose: 5.0 mg/kg/injection, schedule: Q01DX011 (ip), vehicle: methylcellulose (MC)): 71 % of control
- T/C [1]: 83 % of control
- T/C (dose: 10.0 mg/kg/injection, schedule: Q01DX011 (ip), vehicle: methylcellulose (MC)): 62 % of control and 72 % of control
- T/C [2]: 103 % of control
- T/C (dose: 18.0 mg/kg/injection, schedule: Q01DX011 (ip), vehicle: carboxymethylcellulose (CMC)): 40 % of control
- T/C (dose: 20.0 mg/kg/injection, schedule: Q01DX011 (ip), vehicle: methylcellulose (MC)): 65 % of control
- T/C (dose: 27.0 mg/kg/injection, schedule: Q01DX011 (ip), vehicle: carboxymethylcellulose (CMC)): 46 % of control
- T/C (dose: 30.0 mg/kg/injection, schedule: Q01DX011 (ip), vehicle: carboxymethylcellulose (CMC)): 47 % of control
- T/C (dose: 40.0 mg/kg/injection, schedule: Q01DX011 (ip), vehicle: methylcellulose (MC)): 25 % of control
- T/C (dose: 60.0 mg/kg/injection, schedule: Q01DX011 (ip), vehicle: carboxymethylcellulose (CMC)): 26 % of control

Compound: C=CCSc1ncnc2c1ncn2C1OC(CO)C(O)C1O (configuration not stated)
- T/C (dose: 1.0 mg/kg/injection, schedule: Q01DX011 (ip), vehicle: saline): 63 % of control
- T/C (dose: 1.6 mg/kg/injection, schedule: Q01DX011 (ip), vehicle: saline): 82 % of control
- T/C (dose: 2.0 mg/kg/injection, schedule: Q01DX011 (ip), vehicle: saline): 112 % of control
- T/C (dose: 3.2 mg/kg/injection, schedule: Q01DX011 (ip), vehicle: saline): 119 % of control
- T/C (dose: 4.0 mg/kg/injection, schedule: Q01DX011 (ip), vehicle: saline): 50 % of control
- T/C [3]: 75 % of control
- T/C (dose: 6.3 mg/kg/injection, schedule: Q01DX011 (ip), vehicle: saline): 40 % of control
- T/C (dose: 7.0 mg/kg/injection, schedule: Q01DX011 (ip), vehicle: saline): 16 % of control
- T/C [4]: 38 % of control
- T/C (dose: 12.5 mg/kg/injection, schedule: Q01DX011 (ip), vehicle: saline): 42 % of control
- T/C (dose: 13.0 mg/kg/injection, schedule: Q01DX011 (ip), vehicle: saline): 2 % of control
- T/C [5]: 8 % of control
- T/C (dose: 25.0 mg/kg/injection, schedule: Q01DX011 (ip), vehicle: saline): 1 % of control and 19 % of control
- T/C (dose: 40.0 mg/kg/injection, schedule: Q01DX011 (ip), vehicle: saline): 1 % of control
- T/C (dose: 50.0 mg/kg/injection, schedule: Q01DX011 (ip), vehicle: saline): 18 % of control
- T/C (dose: 80.0 mg/kg/injection, schedule: Q01DX011 (ip), vehicle: saline): 1 % of control
- T/C (dose: 100.0 mg/kg/injection, schedule: Q01DX011 (ip), vehicle: saline): 11 % of control

Compound: CC1([CH2][Hg][I])OCCOC1[CH2][Hg][I] (configuration not stated)
- T/C (dose: 2.5 mg/kg/injection, schedule: Q01DX011 (ip), vehicle: saline): 57 % of control
- T/C [3]: 71 % of control
- T/C [4]: 57 % of control
- T/C (dose: 10.9 mg/kg/injection, schedule: Q01DX011 (ip), vehicle: saline): 36 % of control
- T/C (dose: 11.0 mg/kg/injection, schedule: Q01DX011 (ip), vehicle: carboxymethylcellulose (CMC)): 87 % of control
- T/C [5]: 7 % of control

Compound: C[N+](C)(C)C(C(=O)c1ccccc1)c1ccccc1 (configuration not stated)
- T/C (dose: 10.0 mg/kg/injection, schedule: Q01DX011 (ip), vehicle: carboxymethylcellulose (CMC)): 124 % of control

Compound: CC(Cc1ccccc1)NC(=O)CCl (configuration not stated)
- T/C (dose: 37.0 mg/kg/injection, schedule: Q01DX011 (im), vehicle: other): 68 % of control
- T/C (dose: 37.0 mg/kg/injection, schedule: Q01DX011 (oral), vehicle: other): 71 % of control
- T/C (dose: 37.0 mg/kg/injection, schedule: Q01DX011 (sc), vehicle: other): 118 % of control
- T/C (dose: 50.0 mg/kg/injection, schedule: Q01DX011 (im), vehicle: other): 68 % of control
- T/C (dose: 50.0 mg/kg/injection, schedule: Q01DX011 (oral), vehicle: other): 106 % of control
- T/C (dose: 50.0 mg/kg/injection, schedule: Q01DX011 (sc), vehicle: other): 73 % of control
- T/C (dose: 75.0 mg/kg/injection, schedule: Q01DX011 (im), vehicle: other): 48 % of control
- T/C (dose: 75.0 mg/kg/injection, schedule: Q01DX011 (oral), vehicle: other): 87 % of control
- T/C (dose: 75.0 mg/kg/injection, schedule: Q01DX011 (sc), vehicle: other): 63 % of control
- T/C (dose: 112.0 mg/kg/injection, schedule: Q01DX011 (oral), vehicle: other): 82 % of control

Compound: CCSc1ncc(Br)c(Sc2nc(N)nc3nc[nH]c23)n1
- T/C (dose: 0.5 mg/kg/injection, schedule: Q01DX011 (ip), vehicle: carboxymethylcellulose (CMC)): 69 % of control
- T/C (dose: 0.5 mg/kg/injection, schedule: Q01DX011 (ip), vehicle: methylcellulose (MC)): 68 % of control
- T/C (dose: 1.0 mg/kg/injection, schedule: Q01DX011 (ip), vehicle: carboxymethylcellulose (CMC)): 17 % of control and 30 % of control
- T/C (dose: 1.0 mg/kg/injection, schedule: Q01DX011 (ip), vehicle: methylcellulose (MC)): 37 % of control
- T/C (dose: 1.5 mg/kg/injection, schedule: Q01DX011 (ip), vehicle: carboxymethylcellulose (CMC)): 18 % of control
- T/C (dose: 2.0 mg/kg/injection, schedule: Q01DX011 (ip), vehicle: carboxymethylcellulose (CMC)): 57 % of control
- T/C (dose: 3.0 mg/kg/injection, schedule: Q01DX011 (ip), vehicle: carboxymethylcellulose (CMC)): 3 % of control and 5 % of control and 23 % of control
- T/C (dose: 4.0 mg/kg/injection, schedule: Q01DX011 (ip), vehicle: carboxymethylcellulose (CMC)): 2 % of control
- T/C (dose: 6.0 mg/kg/injection, schedule: Q01DX011 (ip), vehicle: carboxymethylcellulose (CMC)): 2 % of control
- T/C [1]: 15 % of control
- T/C [2]: 3 % of control

Compound: Cc1ccccc1N(C=O)c1ccccc1C
- T/C (dose: 250.0 mg/kg/injection, schedule: Q01DX011 (ip), vehicle: methylcellulose (MC)): 108 % of control
- T/C (dose: 500.0 mg/kg/injection, schedule: Q01DX011 (ip), vehicle: methylcellulose (MC)): 120 % of control
- T/C (dose: 1000.0 mg/kg/injection, schedule: Q01DX011 (ip), vehicle: methylcellulose (MC)): 110 % of control

Compound: Cn1cnc2nc[nH]c2c1=N
- T/C (dose: 30.0 mg/kg/injection, schedule: Q01DX011 (ip), vehicle: saline): 115 % of control
- T/C (dose: 60.0 mg/kg/injection, schedule: Q01DX011 (ip), vehicle: saline): 93 % of control
- T/C (dose: 120.0 mg/kg/injection, schedule: Q01DX011 (ip), vehicle: saline): 74 % of control
- T/C (dose: 240.0 mg/kg/injection, schedule: Q01DX011 (ip), vehicle: saline): 109 % of control

Compound: CSc1nc(S(C)(=O)=O)ncc1C
- T/C (dose: 15.0 mg/kg/injection, schedule: Q01DX011 (ip), vehicle: methylcellulose (MC)): 86 % of control
- T/C (dose: 31.0 mg/kg/injection, schedule: Q01DX011 (ip), vehicle: methylcellulose (MC)): 94 % of control
- T/C (dose: 62.0 mg/kg/injection, schedule: Q01DX011 (ip), vehicle: methylcellulose (MC)): 154 % of control

Compound: SCc1ccccn1
- T/C (dose: 37.8 mg/kg/injection, schedule: Q01DX011 (ip), vehicle: carboxymethylcellulose (CMC)): 109 % of control
- T/C (dose: 300.0 mg/kg/injection, schedule: Q01DX011 (ip), vehicle: carboxymethylcellulose (CMC)): 97 % of control

Compound: CCCCn1cnc2c(SCCc3ccccc3)nc(N)nc21
- T/C (dose: 50.0 mg/kg/injection, schedule: Q01DX011 (ip), vehicle: methylcellulose (MC)): 37 % of control
- T/C (dose: 100.0 mg/kg/injection, schedule: Q01DX011 (ip), vehicle: methylcellulose (MC)): 42 % of control
- T/C (dose: 200.0 mg/kg/injection, schedule: Q01DX011 (ip), vehicle: methylcellulose (MC)): 26 % of control

Compound: Clc1cccc(CSc2ncnc3nc[nH]c23)c1
- T/C (dose: 3.9 mg/kg/injection, schedule: Q01DX011 (ip), vehicle: methylcellulose (MC)): 56 % of control
- T/C (dose: 7.8 mg/kg/injection, schedule: Q01DX011 (ip), vehicle: methylcellulose (MC)): 57 % of control
- T/C (dose: 15.6 mg/kg/injection, schedule: Q01DX011 (ip), vehicle: methylcellulose (MC)): 20 % of control
- T/C (dose: 31.25 mg/kg/injection, schedule: Q01DX011 (ip), vehicle: methylcellulose (MC)): 3 % of control and 7 % of control
- T/C (dose: 62.5 mg/kg/injection, schedule: Q01DX011 (ip), vehicle: methylcellulose (MC)): 5 % of control
